The record followed here is patent US10221162B2, “Triazole agonists of the APJ receptor” (priority 2015, dated 2019).

In experiment [1] the test system is naive Sprague Dawley rat hearts. The experiment is described as follows: Langendorff isolated perfused rat heart (ex vivo contractility and relaxation). Conditions: Langendorff apparatus, as a function of concentration.
The subject of another experiment is heart failure rat model. Put plainly: In vivo cardiac contractility in heart failure (MI) rat model. The settings on record: heart failure rats, acute administration for 30 min, result in words. As to the method:
Male Lewis rats (Charles River, USA) at 2-3 months of age were used for the study. […] APJ agonists were administered dose dependently acutely for a period of 30 min.
The interaction between […] (ACE2) and Apelin biology is complicated. To investigate the interaction between the Apelin-APJ and ACE signalling pathways, we examined the improvement in cardiac function with APJ small molecule agonists in the presence of ACE inhibitor captopril in heart failure rats in vivo.

On to `COc1cccc(OC)c1-n1c(NS(=O)(=O)[C@@H](C)[C@H](O)c2ncc(C)cn2)nnc1-c1cccc(C)n1` [Example 99.0, (1R,2S)-N-(4-(2,6-dimethoxyphenyl)-5-(6-methylpyridin-2-yl)-4H-1,2,4-triazol-3-yl)-1-hydroxy-1-(5-methylpyrimidin-2-yl)propane-2-sulfonamide], for which, in experiment [1], the “left ventricular dP/dtmax (load independent cardiac contractility)” value is “increases load independent cardiac contractility” and the “left ventricular dP/dtmin (load independent cardiac relaxation)” value is listed as “increases load independent cardiac relaxation”. For the same molecule, the “cardiac contractility as measured by dP/dt” value with heart failure rat model was “increase in cardiac contractility”.

For `COc1cccc(OC)c1-n1c(NS(=O)(=O)[C@@H](C)[C@H](C)c2ncc(C)cn2)nnc1-c1cncc(C)c1` [Example 263.0, (2S,3R)—N-(4-(2,6-dimethoxyphenyl)-5-(5-methylpyridin-3-yl)-4H-1,2,4-triazol-3-yl)-3-(5-methylpyrimidin-2-yl)butane-2-sulfonamide], in experiment [1], the “left ventricular dP/dtmax (load independent cardiac contractility)” value is recorded as “increases load independent cardiac contractility” and the “left ventricular dP/dtmin (load independent cardiac relaxation)” value was “increases load independent cardiac relaxation”. Further, in the experiment on heart failure rat model, the “cardiac contractility as measured by dP/dt” value was “increase in cardiac contractility”.
